{
  "source": "patent US20260355080A1",
  "about": "“COSMETIC COMPOSITION FOR PREVENTING OR AMELIORATING SKIN DISEASES, COMPRISING MORUS ALBA-DERIVED COMPOUND AS ACTIVE INGREDIENT” (DONGGUK UNIVERSITY INDUSTRY-ACADEMIC COOPERATION FOUNDATION, priority 2022, published 2026)",
  "format_in_all_cases": "cell-based",
  "key": {"[1]": {"experiment": "MTT cytotoxicity assay in melanocytes", "details": "human, tested at 10, 50, and 100 μM, FIG. 1, read-out: treatment concentration up to which no cytotoxicity was shown", "procedure": "(§1) Melanocytes used were isolated from normal adult skin tissues obtained through repeated cesarean section and circumcision. Dispase 2.4U (#295 825; Roche, Mannheim, Germany) was treated for 1 hour to separate the epidermis, and 0.05% trypsin was treated for 10 minutes to isolate melanocytes. Afterwards, the cells were suspended in Medium 254, and the bovine pituitary extract (BPE), fetal bovine serum (FBS), hydrocortisone, basic fibroblast growth factor (bFGF), bovine transferrin (BT), heparin, and phorbol 12-myristate13-acetate (PMA, Invitrogen) were added and cultured. The cells that had undergone the 3rd~5th passage culture were used in the experiment.\nIn order to identify cytotoxicity of the 136 candidate materials, MTT assays were performed. Melanocytes were treated with the candidate materials by concentration (10, 50, and 100 μM) for 48 hours, and the cell viability was measured to determine the concentration range at which no cytotoxicity of each candidate material is observed."}, "tyrosinase [2]": {"test_system": "tyrosinase", "experiment": "Western blot of intracellular tyrosinase expression in melanocytes (skin whitening effect)", "details": "10 μM M55 (other candidates at non-cytotoxic concentration), 48 hours, FIG. 2", "procedure": "as §1\nIn order to identify the skin whitening effect of the 136 candidate materials, Western blot was performed. After treating melanocytes with the candidate material at a concentration at which no cytotoxicity was shown in the melanocytes identified in Example 1-2 for 48 hours, intracellular tyrosinase expression was measured. The experiment was repeated 4 times or more."}, "tyrosinase [3]": {"test_system": "tyrosinase", "experiment": "Western blot of tyrosinase expression in ARG2 overexpressing keratinocyte/melanocyte co-cultured cell model", "details": "10 μM, 48 hours, P<0.05 significant, FIG. 3", "procedure": "(§2) Keratinocytes were seeded in a culture container at 2×10^5/ml, after 24 hours, pCMV plasmids containing one of three genes [arginase 2 (ARG2, NCBI Gene ID: 384), cadherin 11 (CDH11, NCBI Gene: 1009), and guanine deaminase (GDA, NCBI Gene: 9615)] were transfected into cells using Lipofectamine 2000 to induce overexpression, and after 4 hours of culture with Dulbecco's Modified Essential Medium (DMEM) culture medium without supplements, 0.5×10^5/ml melanocytes were mixed with the keratinocyte culture medium containing supplements and co-cultured in the same culture container. After 24 hours, the keratinocyte culture medium without supplements was replaced, and after 5 hours, the normal melanocytes were treated with the 16 candidate materials for 48 hours. […]\n(§3) In order to identify the skin whitening and anti-aging effects of 16 candidate materials in Example 1-2, for the skin whitening effect, each of the three types of cell models constructed in the Example 2-1 was treated with the 16 candidate materials at concentrations at which no cytotoxicity is shown in the melanocytes identified in Example 1-1 for 48 hours, and then Western blot was performed to measure the expression of tyrosinase. The experiment was repeated 4 times, and P<0.05 was determined to be significant. […] The experiment was repeated 4 times, and P<0.05 was determined to be significant."}, "p16 (Ink4a)": {"test_system": "p16 (Ink4a)", "experiment": "Western blot of p16 (Ink4a) expression in keratinocytes (anti-aging effect)", "details": "10 μM, 48 hours, P<0.05 significant, FIG. 4", "procedure": "Keratinocytes used were isolated from normal adult skin tissues obtained through repeated cesarean section and circumcision. The cells were dispensed into EpiLife Medium, and bovine pituitary extract (BPE), bovine insulin (BI), hydrocortisone, human epidermal growth factor (EGF), and bovine transferrin (BT) were added and cultured. The cells that had undergone the 3rd~5th passage culture were used in the experiment. The pituitary extract, bovine insulin, hydrocortisone, human epidermal growth factor, and bovine transferrin were used by purchasing from Invitrogen.\nIn order to identify the skin whitening and anti-aging effects of 16 candidate materials in Example 1-2, for the skin whitening effect, each of the three types of cell models constructed in the Example 2-1 was treated with the 16 candidate materials at concentrations at which no cytotoxicity is shown in the melanocytes identified in Example 1-1 for 48 hours, and then Western blot was performed to measure the expression of tyrosinase. The experiment was repeated 4 times, and P<0.05 was determined to be significant. In addition, for analysis on the anti-aging effect, the keratinocytes were treated with the above 16 candidate materials for 48 hours each, and then Western blot was performed to measure the expression of p16 (Ink4a). The experiment was repeated 4 times, and P<0.05 was determined to be significant."}, "tyrosinase; p16 (Ink4a)": {"test_system": "tyrosinase; p16 (Ink4a)", "experiment": "Combined analysis of skin whitening (tyrosinase expression, co-cultured cell models) and anti-aging (p16 expression, keratinocytes) effects", "details": "16 candidate materials tested, 48 hours", "procedure": "as §2, §3"}, "tyrosinase [4]": {"test_system": "tyrosinase", "experiment": "Western blot of tyrosinase expression in GDA overexpressing keratinocyte/melanocyte co-cultured cell model", "details": "10 μM, 48 hours, P<0.05 significant, FIG. 3", "procedure": "as §2, §3"}, "tyrosinase [5]": {"test_system": "tyrosinase", "experiment": "Western blot of tyrosinase expression in CDH11 overexpressing keratinocyte/melanocyte co-cultured cell model", "details": "10 μM, 48 hours, FIG. 3", "procedure": "as §2, §3"}, "tyrosinase [6]": {"test_system": "tyrosinase", "experiment": "Western blot of tyrosinase expression in control gene overexpressing (pCMV) keratinocyte/melanocyte co-cultured cell model", "details": "control gene overexpressing co-cultured cell model (pCMV, of the CDH11 experiment), 10 μM, 48 hours; FIG. 3", "procedure": "as §2, §3"}},
  "data": [
    {"smiles": "COC(=O)C[C@@H](O)CC(=O)O", "note": "[M55]", "values": [
      {"measurement": "MNTC at 48 h", "setting": "[1]", "result": "≥ 10", "unit": "µM"},
      {"measurement": "tyrosinase expression compared to the control group", "setting": "tyrosinase [2]", "result": "significantly reduced"},
      {"measurement": "tyrosinase expression compared to the control group", "setting": "tyrosinase [3]", "result": "significant decrease"},
      {"measurement": "p16 (Ink4a) expression compared to the control group", "setting": "p16 (Ink4a)", "result": "significantly reduced"},
      {"measurement": "skin whitening and anti-aging effects shown together", "setting": "tyrosinase; p16 (Ink4a)", "result": "skin whitening and anti-aging effects were shown together"},
      {"measurement": "tyrosinase expression compared to the control group", "setting": "tyrosinase [4]", "result": "significant decrease"},
      {"measurement": "tyrosinase expression compared to the control group", "setting": "tyrosinase [5]", "result": "reduced"},
      {"measurement": "tyrosinase expression compared to the control group", "setting": "tyrosinase [6]", "result": "increased"}
    ]}
  ]
}
